Results taken from patent US8828993B2, “Psychotropic agents having glutamate NMDA activity” (Ramot At Tel-Aviv University Ltd., priority 2006, dated 2014).
Entries after “also recorded” stand apart in the source; their conditions may differ. Counter-ions that a name gives are not always drawn.

Columns and labels:
Type in all cases: in vivo
[1] = system: mice; assay: Open field exploratory locomotor activity; settings: for sedative effect: mice, i.p.
From the text: Open Field Exploratory Locomotor Activity
The procedure consists of subjecting an animal, usually a rodent, to an unknown large environment from which escape is prevented by surrounding walls. The open field test is now one of the most popular procedures in animal psychology (Crawley, et al., Exploratory behavior models of anxiety in mice, Neurosci Biobehav Rev 9 (1985), pp. 37-44). The procedure involves forced confrontation of a rodent with the situation. The animal is placed in the center or close to the walls of the apparatus and the following behavioral items are recorded for a period ranging from 5 to 20 minutes: horizontal locomotion, and frequency of rearing or leaning. In such a situation, rodents spontaneously prefer the periphery of the apparatus to activity in the central parts of the open field. Increase in time spent in the central part as well as of the ratio central/total locomotion or decrease of the latency to enter the central part are indications of anxiolysis.
In a typical test, an individual mouse was placed in a novel environment of a square open field (50×50 cm), the floor of which had been divided into 3 areas, as shown below. The area within 10 cm of the chamber walls was termed the periphery. […] One hour after drug administration, the animal was placed in the same corner of the field. The animal behavior in the open field was recorded by videotaping for 20-60 minutes and analyzed subsequently digitally using the Noldus software for animal behavior. The measurements included velocity, distance moved, frequency of visits to the central area, number of rearing events.
The effect of Compound 1 on the behavior of mice in the open field and the dose-dependent effect following i.p administration were evaluated. Naïve male Mice (Balb/c, Harlan Israel) were used. The animals, divided 3 to 5 animals per group, were administered with Compound 1 (12.5, 25, 50, 75 and 100 mg/kg) 1 hr prior to placing each in an open field. Mice were monitored for 1 hr (every 5 minutes) using the Noldus system, and their distance moved, velocity, time of immobility and number of rearings was recorded.
(§1) The effect of Compound 6 on the behavior of mice in the open field was also examined. Naïve male mice (Balb/c, Harlan Israel) were used. Animals (6 per group) were administered with Compound 6 (12.5, 25 and 50 mg/kg, i.p.) 1 hr prior to placing each in the open field. Mice were followed for 1 hr (every 5 minutes) using the Noldus system, and their distance moved, velocity, time of immobility and number of rearings was recorded.
The effect of oral administration of Compound 1 in the open field was tested by orally administering to male ICR mice varying amounts of Compound 1 (5, 10 and 20 mg/kg) or vehicle. Animals were placed in the open field 1 hr after drug administration and horizontal and vertical behavior was recorded for 20 minutes.
as §1, with “The dose-dependent” for “The”, “3 administered i.p.” for “6 on the behavior of mice”, “tested.” for “examined.”, “Animals” for “Animals (6 per group)”, “3” for “6”, “i.p., 6 per group)” for “i.p.)”
Animals were administered orally with Compound 1 (5, 10 and 20 mg/kg) or with a vehicle. Animals were placed in the open field 1 hr after drug administration and animal track was registered for 20 minutes. The time spent in the center (zone 3) and the frequency to the center were indicators of anxiety.

[2] = system: rats pretreated with MK-801; assay: Morris Water Maze in rats pretreated with MK-801; settings: rats pretreated with MK-801 0.15 mg/kg i.p.
Description: (§2) The Morris Water Maze is a well known test aimed to assess spatial cognitive tasks (Anger, et al., Animal test systems to study behavioral dysfunctions of neurodegenerative disorders, Neurotoxicology, 12, 403-13 (1991)). The maze consists of a circular pool measuring 1.80 m in diameter 60 cm in height. The pool was filled with water (21±1° C.) to a depth of 30 cm. A circular hidden escape platform (10 cm in diameter) was placed just below the water surface. The test room contained several permanent extra maze cues such as the rat housing rack, laboratory table, posters on the walls, etc.
as §2, with “tasks.” for “tasks (Anger, et al., Animal test systems to study behavioral dysfunctions of neurodegenerative disorders, Neurotoxicology, 12, 403-13 (1991)).”
In the experiment rats were given Compound 1 orally on day 1 and the first test begun 90 minute later, six trials per day, for 3 consecutive days, to find the hidden platform (acquisition phase). The escape latency, i.e., the time required by the rat to find and climb onto the platform, was recorded for up to 120 sec. Each rat was allowed to remain on the platform for 30 sec, after which it was removed to its home cage.
A video camera was placed above the center of the pool for tracking the rat, and a video tracking system (Noldus) with online digital output directly fed data into a computer. Data were analyzed using EthoVision automated tracking system software (Noldus).
Compound 1 at both doses decreased the latency to the platform on day 3 of the experiment but not on days 1 and 2.
The relief of cognitive impairments was also shown in the use of Compound 6. […] Compound 6 at 10 mg/kg decreased the latency to the platform on days 2 and 3 of the experimentation.

[3] = system: mice; assay: Elevated plus maze
From the text: The elevated plus maze is a widely used method to test anxiety in rodents (Pellow, et al., Pharmacol. Biochem. Behav., 24, 525-529 (1986)). The apparatus was made of wood and painted black, with two opposing open arms and two opposite enclosed arms of the same size. The arms were attached to a central square shaped in a plus sign. The whole apparatus was placed 50 cm above the floor. Anxious animals refrain from entering the open arm and prefer the closed arm.
In a typical experiment, Balb/c male mice were administered orally with 10 and 20 mg/kg of Compound 1 or Compound 6 and with a vehicle or with diazepam (1 mg/kg) administered per os (p.o.) 90 minutes before they were placed in the center of the maze. The frequency to the open aims, the time spent in the different arms, the velocity and number of rearings of the animals in each zone were recorded (Noldus).
Male Balb/c mice were used. Animals were transferred to the behavior room 24 hr before the experiment. Compound 1 or diazepam were administered orally 90 minutes before testing. Each treatment group included 5 animals.
Male Balb/c mice were used. Animals were transferred to the behavior room 24 hr before the experiment. Compound 6 (3, 9, or 27 mg/kg) or vehicle were administered orally 90 minutes before testing. Each treatment group included 5 animals.

[4] = male ICR mice, oral 10 and 20 mg/kg, 1 hr after administration, 20 minutes
[5] = male Balb/c mice, 20 mg/kg oral
[6] = male Balb/c mice, oral, diazepam 1 mg/kg
[7] = Balb/c mice, 12.5, 25 and 50 mg/kg i.p.

## COC(=O)C(N)CN1CCN(C2=Nc3ccccc3Nc3sc(C)cc32)CC1 (stereo not shown) [Compound 1, 2-amino-3-[4-(2-methyl-10H-thieno[2,3-b][1,5]benzodiazepin-4-yl)-piperazin-1-yl]-propionic acid, methyl ester hydrochloride salt]
[1]; Balb/c mice, 12.5 mg/kg i.p.
  horizontal and vertical motility parameters: did not modify significantly
  rearing frequency: tended to increase
[1]; Balb/c mice, doses higher than 50 mg/kg i.p.
  sedative effect / motility: marked sedative effect
[1]; Balb/c mice, doses up to 50 mg/kg i.p.
  horizontal and vertical motility: mild inhibition
[1]; Balb/c mice, i.p. 12.5, 25, 50, 75 and 100 mg/kg, 1 hr prior, monitored 1 hr
  horizontal and vertical motility: dose dependent decrease
[1]; male ICR mice, 20 mg/kg p.o., 1 hr before, 20 minutes
  anxiety parameters (time spent in the center and frequency to the center): anxiolytic activity
[1]; [4]
  horizontal behavior (velocity and distance moved): slightly decreased
  vertical behavior (number of rearings): increased
[1]
  sedative effect: mild sedative effect
[2]; 10 and 20 mg/kg p.o. on day 1, day 3
  latency to the platform: decreased
[3]; 20 mg/kg
  anxiolytic activity (overall conclusion): anxiolytic activity which resembles diazepam
[3]; [5]
  time spent in the center: increased
  time spent in the closed and the open arm: did not significantly affect
[3]; male Balb/c mice, 20 mg/kg oral, 90 minutes before testing
  frequency to the open arm and the center: frequented significantly more
[3]; [6]
  number of rearings in the open arm: increased number of rearings
  velocity: not

## CNC(CN1CCN(C2=Nc3ccccc3Nc3sc(C)cc32)CC1)C(=O)OC (stereo not shown) [Compound 6, 2-N-methylamino-3-[4-(2-methyl-10H-thieno[2,3-b][1.5]benzodiazepin-4-yl)-piperazin-1-yl]propionic acid, methyl ester trihydrochloride salt]
[1]; [7]
  duration of “not moving” periods: increased
  horizontal (distance) and vertical motility (number of rearings): inhibition
[1]; Balb/c mice, 12.5, 25 and 50 mg/kg i.p., 1 hr prior
  motility (distance moved and velocity): dose dependent decrease
[1]; Balb/c mice, up to 50 mg/kg i.p.
  effect on motility (distance moved and velocity): mild
[1]
  sedative effect: mild sedative effect
[2]; 10 mg/kg p.o. once on day 1, days 2 and 3
  latency to the platform: decreased
[3]; male Balb/c mice, 3, 9 and 27 mg/kg orally
  time spent in the closed arm: did not significantly affect
[3]; male Balb/c mice, 3, 9 and 27 mg/kg orally, 90 minutes before testing, trihydrochloride salt
  time spent in the open arms: more time; also recorded: dose-dependently increase
[3]; male Balb/c mice, 3, 9 and 27 mg/kg orally, trihydrochloride salt
  time spent in the center: less and decrease
